Laboratory results published in patent US12332245B2, “Cancer biomarkers and methods of use thereof” (THE REGENTS OF THE UNIVERSITY OF CALIFORNIA, priority 2006, dated 2025).

Legend:
Type in all cases: cell-based, human
COX-2 in HMEC = experiment: exogenous induction of COX-2 by TGF-β in HMEC with modulated p16/Rb pathway (immunoblot)
Excerpt: DNA constructs. DNA constructs used in this study are as follows: pMSCV, pMSCV-shp16 (G. Hannon and S. Lowe, Cold Spring Harbor Laboratories); pLXSN, pLXSN-HPV 16 E7 (D. Galloway, Fred Hutchinson Cancer Center); pMKO, pMKO-shRb (W. Hahn, Harvard Medical School and Dana-Farber Cancer Institute), pBabe; pBabe-cyclinD1 (O. Tetsu, UCSF Cancer Center), pBabe, pBabe-hTert (K. Collins, UC-Berkeley); LXSP and LXSP-COX-2 (D. Dixon, Vanderbilt University Medical Center). All constructs were packaged in Phoenix A cells for viral propagation. To generate stable cell lines we exposed HMEC, vHMEC or breast cell lines to viral supernatant containing 8 μg/ml Polybrene (Sigma). Cells containing stable DNA integration were selected in medium containing 4 μg/ml puromycin (pMSCV, pMKO, and LXSP constructs), 50 μg/ml G418 (LXSN constructs) or 20 μg/nil hygromycin (pBabe). Where indicated, cell lines were imaged using a standard phase contrast microscopy.
Western Blot. Total protein (15-20 μg) lysates were electrophoretically separated by SDS-PAGE and transferred onto polyvinylidene difluoride (PVDF) membranes according to standard procedures. Antisera against COX-2 (160107; Cayman Chemical, MI), Rb (554136, BD Pharmingen), p16 (16P07 Neomarkers), E2F1 (sc-251 Santa Cruz), cyclinD1 (2926, Cell Signaling), p53 (se-126, Santa Cruz), p21 (SC-6246 Santa Cruz) were used according to manufacturers protocols.
To test this hypothesis, specific members of the p16/Rb pathway were genetically modulated, and the levels of COX-2 protein expression compared to HMEC that maintain p16 expression were determined. First, basal and induced COX-2 protein levels in HMEC lacking p16 activity were compared.
To extend this analysis, we determined how other alterations within this pathway, mutations common in cancer, affect COX-2 expression. We modulated the p16/Rb pathway by three additional methods, cyclin D1 overexpression, pRb downregulation, and expression of a viral oncoprotein, HPV 16-E7 and determined the effect on basal and exogenously-induced COX-2 protein levels. To determine if cyclin D1 induces and/or sensitizes cells to COX-2 induction, we measured COX-2 protein levels in HMEC engineered to stably express cyclin D1 under the regulation of an independent, constitutively active promoter. […] The absence of E2F1 upregulation following cyclin D1 overexpression supports our finding that Rb remains active. […] To determine if inactivation of Rb is sufficient for the upregulation of COX-2, we infected HMEC with a retrovirus containing a short hairpin RNA against Rb (shRb) and determined COX-2 protein levels in cells from two independent experiments. […] Similar to results obtained with Rb genetic silencing, expression of the human papilloma virus 16-E7 (HPV 16-E7) elevated both basal and induced levels of COX-2 protein (FIG. 12D). Stable expression of HPV16-E7 was performed in cells generated from three independent reduction mammoplasties. Mammary epithelial cells expressing HPV 16-E7 show downregulation of Rb and thus inactivation of Rb and consequently upregulation of E2F1 (FIG. 12D). HPV16-E7 is well characterized for its role as a transforming oncoprotein through targeted degradation of all three members of Rb family (Rb, p107 and p130) and driving E2F-dependent transactivation.
FIG. 12A-E. Deregulation of distinct members of the p16/cyclin D1/Rb pathway differentially regulate COX-2. […]

vHMEC-ras0.5 cells [1] = experiment: TGFβ-induced EMT in vHMEC-ras0.5 cells (immunofluorescence, flow cytometry, immunoblot, MSP)
Procedure: Having observed that extracellular signaling induced by 10% serum can cooperate with intracellular ras activation to induce EMT in vHMEC, it was then asked whether appropriate growth factor stimulation could induce EMT in the immortalized vHMEC-ras0.5 cells which had maintained their epithelial morphology. […] Thiery et al. (2003) Curr. Opinion Cell. Biol. 15:740; and Zavadil et al. (2005) Oncogene 24:5764. vHMEC-ras0.5 cells were treated with TGFβ and the expression of molecular markers associated with EMT was assessed by immunofluorescence, flow cytometry, and immunoblot analysis. […] Coincident with the loss of epithelial marker expression was an upregulation in the expression of the mesenchymal markers, twist (FIG. 18B), N-cadherin, and fibronectin (FIG. 18C).
Unlike the EMT observed in cells exposed to 10% serum, TGFβ-induced EMT is reversible. […] As expected, the promoter of the epithelial marker 14-3-3σ remained unmethylated in all the epithelial cells, and methylated in the human mammary fibroblasts, which were used as a positive control (FIG. 18D).
FIGS. 18A-D. TGFβ induces EMT in vHMEC-ras0.5 cells without modulating methylation of E-cadherin. A. Inununofluorescence analysis. Cells were treated with 2 ng/ml TGFβ for 72 h, and immunostained for pancytokeratin, E-cadherin, β 1-integrin, and vimentin. B. Flow cytometric analysis of twist expression before (green curve) and after (purple curve) treatment with 2 ng/ml TGFβ for 72 h. C. Immunoblot analysis of the mesenchymal markers fibronectin (Fn) and N-cadherin (N-cad) was performed on cell lysates prepared from vHMEC-ras0.5 that were either untreated (−) or treated (+) with 2 ng/ml TGFβ for 72 h. Cell lystates prepared from human mammary fibroblasts were used as a positive control (C) and actin is shown as a loading control. D. MSP analysis of E-cadherin and 14-3 3σ was conducted on the PCR products of bisulfite-treated DNA isolated from vHMEC-ras0.5 untreated (−TGF) or treated (+TGF) with 2 ng/ml TGFβ for 96 h as described in FIGS. 3B and C. Bisulfite-modified DNA from MCF7 and MDA-MB-231 cells was used as unmethylated and methylated control templates, respectively for E-cadherin, while bisulfite-modified DNA from MDA-MB-231 and human mammary fibroblasts (HMF) served as unmethylated and methylated controls for 14-3-3s. Also included is a water control (no template).

vHMEC-ras0.5 cells [2] = experiment: scratch migration assay of vHMEC-ras0.5 monolayers with time-lapse microscopy; conditions: TGFβ treated versus untreated cells
[3] = tested on: COX-2 in vHMEC over expressing TRF2; experiment: phospho-p38 inhibitor treatment of vHMEC over expressing TRF2; COX-2 by Q-PCR and immunoblot; conditions: early passage vHMEC expressing TRF2, SB203580 24 hrs
Excerpt: Cell Culture: Human mammary epithelial cells (vHMEC) were isolated from reduction mammoplasty (RM) of four individuals RM9, RM15, RM16 and RM18. HMEC undergo a spontaneous proliferation barrier between 8 and 12 population doublings. Variant human mammary epithelial cells (vHMEC) escape this growth barrier and have silenced p16 through promoter methylation. Cells were propagated in 2D cultures in modified MCBD 170 media (MEGM, Lonza) as previously described (Romanov et al, 2001; Hammond et al 1984). All experiments were performed on exponentially growing early passage vHMEC (between 13 to 20 population doublings); RM9, 15, 16 and 18 cease to expand in cell number at population doublings 45, 60, 50 and 53, respectively. […]
(§1) Quantitative PCR: Total RNA was isolated from cells and cDNA synthesized using standard methods. cDNA was subsequently used for quantitative real-time PCR using the standard curve method. […]
(§2) Western Blotting, ELISA and Immunofluorescence: Cell pellets were lysed in T-PER buffer (Pierce). […] Activin A protein levels were measured using the Duo-Set Activin ELISA kit (R&D Systems) following the manufacturer's directions. […] Levels of activin A were determined in cells from all four donors. […] The mean fluorescent intensity of γH2AX signal (voxels) in each nucleus was determined with the Volocity 4.0.0 software package (Improvision) on Z-stacks. […]

[4] = tested on: COX-2 and phospho-p38 in vHMEC; experiment: exogenous activin A treatment of vHMEC; COX-2 and phospho-p38 by Q-PCR and immunoblot; conditions: exogenous activin A 48 hrs
Excerpt: Cell Culture: Human mammary epithelial cells (vHMEC) were isolated from reduction mammoplasty (RM) of four individuals RM9, RM15, RM16 and RM18. HMEC undergo a spontaneous proliferation barrier between 8 and 12 population doublings. Variant human mammary epithelial cells (vHMEC) escape this growth barrier and have silenced p16 through promoter methylation. Cells were propagated in 2D cultures in modified MCBD 170 media (MEGM, Lonza) as previously described (Romanov et al, 2001; Hammond et al 1984). All experiments were performed on exponentially growing early passage vHMEC (between 13 to 20 population doublings); RM9, 15, 16 and 18 cease to expand in cell number at population doublings 45, 60, 50 and 53, respectively. Activin A (Sigma) and the p38 inhibitor, SB203580, (Sigma) were added to culture media for 48 and 24 hours (respectively) prior to harvest at the doses shown in FIGS. 3 and 4. The same amount of solvent for each molecule was added to the culture media for controls.
as §1, §2
FIGS. 23A-D: Activin A is Up Regulated in vHMEC and Induces COX-2. A. Box plot showing the levels of activin A mRNA measured using Q-PCR in parental vHMEC, or vHMEC over expressing vector (pWP) or TRF2 from 4 donors. p-value was calculated using ANOVA and is shown in the inset. B, Box plot showing the levels of activin A protein measured using ELISA in parental vHMEC or vHMEC over expressing vector (pWP) or TRF2 from 4 donors. […]

[5] = 2 ng/ml TGFβ for 72 h, immunofluorescence

## TGF-β
COX-2 in HMEC; HMEC expressing HPV 16-E7, 24 h exposure to 1 ng/ml TGF-β
  COX-2 protein after exogenous induction: elevated
COX-2 in HMEC; HMEC overexpressing cyclin D1, 24 h exposure to 1 ng/ml TGF-β
  COX-2 protein after exogenous induction: failed to render cells sensitive
COX-2 in HMEC; HMEC with shRb, 24 h exposure to 1 ng/ml TGF-β
  COX-2 protein after exogenous induction: increased
COX-2 in HMEC; p16 silenced HMEC (shp16), 24 h exposure to 1 ng/ml TGF-β
  COX-2 protein after exogenous induction: COX-2 upregulation
COX-2 in HMEC; vector control HMEC (pMSCV), 24 h exposure to 1 ng/ml TGF-β
  COX-2 protein after exogenous induction: unresponsive
vHMEC-ras0.5 cells [1]; 2 ng/ml TGFβ for 72 h, flow cytometry and immunoblot
  expression of the mesenchymal markers twist, N-cadherin and fibronectin: upregulation
vHMEC-ras0.5 cells [1]; [5]
  E-cadherin expression: loss
  cytokeratin expression: diminution
  β1-integrin expression: loss
vHMEC-ras0.5 cells [1]; 2 ng/ml TGFβ for 96 h, MSP
  methylation of the E-cadherin promoter: not observed
vHMEC-ras0.5 cells [1]; 2 ng/ml TGFβ, began within 48 h, clearly manifested by 72 h
  cell morphology (EMT): morphological change
vHMEC-ras0.5 cells [2]
  migration into the denuded area: increase in directed migration

## C[S+]([O-])c1ccc(-c2nc(-c3ccncc3)c(-c3ccc(F)cc3)[nH]2)cc1 (centres unmarked) [SB203580]
[3]; Q-PCR, ANOVA p=0.002
  COX-2 mRNA: marked decrease
[3]; immunoblot
  COX-2 protein levels: marked decrease

B1: activin A: a member of the TGF-β superfamily; a homodimer of the activin βA subunits (protein, UniProt P08476 311-426, looked up)
Inhibin beta A chain: GLECDGKVNICCKKQFFVSFKDIGWNDWIIAPSGYHANYCEGECPSHIAGTSGSSLSFHSTVINHYRMRGHSPFANLKSCCVPTKLRPMSMLYYDDGQNIIKKDIQNMIVEECGCS
modifications: Inhibin beta A chain
[4]; vHMEC from two donors, Q-PCR, ANOVA p=0.001
  increase in COX-2 mRNA: approximately two-fold
[4]; vHMEC from two donors, immunoblot
  increase in COX-2 protein: approximately two-fold
[4]; vHMEC, immunoblot
  levels of phospho-p38: increase
